Data: US11828750B2, “Material for screening for compound acting on ION channel and use thereof” (PUBLIC UNIVERSITY CORPORATION NAGOYA CITY UNIVERSITY, priority 2016, dated 2023)
pIC50: −log10 of the molar value.

What was measured:
hTREK-1 = molecular target: T1, hTREK-1 (Homo sapiens, UniProt O95069); assay: Cell death assay (MTT method) in TREK-1 test cells (hTREK-1#Kir 2.1#mutated Nav HEK293 cells); type: cell-based; settings: 37° C.
T1 construct: expressed in transfected cells; host or cells: HEK293 cells stably expressing Kir 2.1 and Nav 1.5 IFM/QQQ; hTREK-1 in pcDNA3.1(+)
T1 sequence (O95069 1-422 isoform O95069-3): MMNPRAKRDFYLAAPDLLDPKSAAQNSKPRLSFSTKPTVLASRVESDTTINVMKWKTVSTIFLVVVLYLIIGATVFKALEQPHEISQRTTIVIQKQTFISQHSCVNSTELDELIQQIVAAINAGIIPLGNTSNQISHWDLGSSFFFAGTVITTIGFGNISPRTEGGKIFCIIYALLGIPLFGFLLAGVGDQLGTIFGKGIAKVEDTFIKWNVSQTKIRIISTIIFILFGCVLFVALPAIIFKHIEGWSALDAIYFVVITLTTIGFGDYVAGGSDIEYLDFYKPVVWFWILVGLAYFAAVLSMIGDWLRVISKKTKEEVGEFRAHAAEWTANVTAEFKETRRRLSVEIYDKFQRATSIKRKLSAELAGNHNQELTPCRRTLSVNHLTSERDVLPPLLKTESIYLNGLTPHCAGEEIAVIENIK
Method: (Cell Culture and Gene Insertion) Human-derived embryonic kidney cells (HEK293 cells) were purchased from the Health Sciences Research Resource Bank (HSRRB). 10% fetal bovine serum (FBS, Gibco Corp.) was added thereto followed by culturing at 37° C. in 5% CO2 in Dulbecco's Modified Eagle Medium (D-MEM, Wako Pure Chemical Industries, Ltd.) containing 100 U/ml penicillin (Wako Pure Chemical Industries, Ltd.) and 100 μg/ml streptomycin (Meiji Seika Kaisha, Ltd.). pcDNA3.1/Kir 2.1, obtained by subcloning human-derived Kir 2.1 (NM #000891) in pcDNA3.1(+) (Invitrogen Corp.), was inserted using Lipofectamine 2000 (Invitrogen Corp.) followed by culturing in medium obtained by adding 0.2 mg/ml Zeocin (Invitrogen Corp.) to the above-mentioned D-MEM medium and then cloning Zeocin resistant cells to prepare Kir 2.1 constantly expressing cells (HEK#Kir). In addition, the deactivation mutant Nav 1.5 IFM/QQQ was inserted into the Kir 2.1 constantly expressing cells using the same method (HEK#Kir#mutated Nav).
Proceeding as above, hTREK-1#Kir 2.1 #mutated Nay cells (referred to herebelow as TREK-1 test cells) were prepared by subcloning hTREK-1 (GenBank Accession Number: NM #001017424), a type of human-derived K2P channel, in pcDNA3.1(+) and inserting it in the previously prepared Kir 2.1 #mutated Nav cells. […]

hTASK-1 = assay: Cell death assay in TASK-1 test cells (hTASK-1 transiently expressing Kir 2.1#mutated Nav cells); type: cell-based, human
Method: With the TREK-1 test cells, the culture medium was replaced with measurement buffer (137 mM NaCl, 5.9 mM KCl, 2.2 mM CaCl2, 1.2 mM MgCl2, 14 mM glucose, 10 mM HEPES (pH 7.4 with NaOH), this also applies in the following) and BaCl2 was added to provide 200 μM Ba ion, a Kir 2.1 inhibitor. This was followed by incubation for approximately 12 hours under conditions of 37° C., atmospheric pressure, and 5% CO2 and monitoring of cell death. […] The measurement of cell death was carried out using the MTT method with reference to a paper by the present inventors (Yamazaki, D., et al., Am J Physiol Cell Physiol 300, C75-86, 2011).
hTASK-1 (the Δi20 mutant was used due to poor transfer to the cell membrane by the wild type, resulting in the problems of a small current and measurement difficulties. This mutant is reported to readily transfer to the membrane. Renigunta et al., Traffic 7:168-181, 2006) and hTASK-3 (GenBank Accession Number: NM #001282534), which are types of human-derived K2P channels, were subcloned in a baculovirus vector, a viral vector, and were inserted into the Kir 2.1 #mutated Nav cells prepared in Second Embodiment to prepare hTASK-1 transiently expressing TASK-1#Kir 2.1 #mutated Nav cells and hTASK-3 transiently expressing hTASK-3#Kir 2.1 #mutated Nav cells (referred to herebelow as TASK-1 test cells and TASK-3 test cells), respectively, which transiently expressed hTASK-1 and hTASK-3. Sf-900 III SFM (Thermo Fisher Scientific) was used for the culture medium for baculovirus vector production, and Dulbecco's Modified Eagle Medium (D-MEM) culture medium supplemented with 10% fetal bovine serum (FBS) was used as the culture medium for the test cells.
For TASK-3 this was the same as the literature value of 35 nM (Coburn et al., Chem Med Chem., 7(1), 123-33, 2012).

hTASK-3 = molecular target: T2, hTASK-3 (Homo sapiens, UniProt Q9NPC2); assay: Cell death assay in TASK-3 test cells (hTASK-3 transiently expressing Kir 2.1#mutated Nav cells); type: cell-based; settings: 200 μM Ba ion
T2 construct: expressed in transfected cells; host or cells: HEK293 Kir 2.1 + mutated Nav cells, transient expression via baculovirus vector
From the text: Sf-900 III SFM (Thermo Fisher Scientific) was used for the culture medium for baculovirus vector production, and Dulbecco's Modified Eagle Medium (D-MEM) culture medium supplemented with 10% fetal bovine serum (FBS) was used as the culture medium for the test cells.

hSK4 = molecular target: T3, hSK4 (Homo sapiens, UniProt O15554); assay: Cell death assay in SK4 test cells (Kir 2.1+IFM/QQQ+SK4 cells); type: cell-based; settings: in the presence of 100 nM Ca ion
T3 construct: expressed in transfected cells; host or cells: HEK293 Kir 2.1 + mutated Nav cells, transient expression via baculovirus vector
From the text: (§1) hSK2 and hSK4, which are each one type of human-derived Ca ion-activated ion channel, were respectively subcloned in a baculovirus vector, which is a viral vector, and were inserted into the Kir 2.1 #mutated Nav cells prepared in Second Embodiment to prepare hSK2 transiently expressing Kir 2.1+IFM/QQQ+SK2 cells (referred to herebelow as SK2 test cells) and hSK4 transiently expressing Kir 2.1+IFM/QQQ+SK4 cells (referred to herebelow as SK4 test cells). Sf-900 III SFM (Thermo Fisher Scientific) was used for the culture medium for baculovirus vector production, and Dulbecco's Modified Eagle Medium (D-MEM) culture medium supplemented with 10% fetal bovine serum (FBS) was used as the culture medium for the test cells.

hSK2 = molecular target: T4, hSK2 (Homo sapiens, UniProt Q9H2S1); assay: Cell death assay in SK2 test cells (Kir 2.1+IFM/QQQ+SK2 cells); type: cell-based
T4 construct: expressed in transfected cells; host or cells: HEK293 Kir 2.1 + mutated Nav cells, transient expression via baculovirus vector
From the text: as §1

TASK-1 = TASK-1 (Homo sapiens, UniProt O14649); settings: Zou et al. 2010; read-out: reported IC50 for TASK-1; cited from earlier work
TASK-1, sequence (O14649 whole entry, species assumed): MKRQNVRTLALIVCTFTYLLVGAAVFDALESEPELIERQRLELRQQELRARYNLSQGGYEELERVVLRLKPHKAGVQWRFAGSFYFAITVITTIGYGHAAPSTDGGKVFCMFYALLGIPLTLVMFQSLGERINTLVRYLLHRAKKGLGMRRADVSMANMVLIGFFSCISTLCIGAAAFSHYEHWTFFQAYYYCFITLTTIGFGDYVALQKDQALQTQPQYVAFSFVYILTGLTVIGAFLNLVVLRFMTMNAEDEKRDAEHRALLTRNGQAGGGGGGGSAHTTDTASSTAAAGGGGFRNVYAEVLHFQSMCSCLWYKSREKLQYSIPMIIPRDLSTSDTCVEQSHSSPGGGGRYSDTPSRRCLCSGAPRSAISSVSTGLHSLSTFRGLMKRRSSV

T2 sequence (Q9NPC2 whole entry): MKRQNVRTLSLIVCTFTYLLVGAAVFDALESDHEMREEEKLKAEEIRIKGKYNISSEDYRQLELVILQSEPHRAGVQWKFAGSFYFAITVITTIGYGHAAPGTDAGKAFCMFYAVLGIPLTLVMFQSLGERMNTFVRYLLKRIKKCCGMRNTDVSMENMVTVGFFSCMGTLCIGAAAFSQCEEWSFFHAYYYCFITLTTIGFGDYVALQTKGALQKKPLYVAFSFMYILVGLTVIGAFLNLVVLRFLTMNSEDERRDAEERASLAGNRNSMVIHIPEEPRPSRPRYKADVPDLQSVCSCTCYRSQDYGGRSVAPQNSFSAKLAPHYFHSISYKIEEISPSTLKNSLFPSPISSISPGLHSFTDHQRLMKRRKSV

Question: Which “cell death on supply of TREK-1 inhibitor” value (hTREK-1; in the presence of 200 μM Ba ion, approximately 12 hours, MTT method) does the source give for `Nc1ncnc2c1nc(Br)n2[C@@H]1O[C@@H]2COP(=O)(O)O[C@H]2[C@H]1O` [8-Br-cAMP] here?
Answer: The value was “Cell death was observed”.

Question: What does the source list for `[Ba+2].[Cl-].[Cl-]` [Ba ion, BaCl2]?
Answer: cell death with Ba ion alone (hTREK-1; 200 μM Ba ion, TREK-1 test cells): cell death was not produced; cell death with Ba ion alone (hTASK-1; 200 μM Ba ion): cell death was not produced; cell death with Ba ion alone (hTASK-3): cell death was not produced

Question: For `CCn1c(=O)[nH]c2cc(Cl)c(Cl)cc21` [DCEBIO, 5,6-dichloro-1-ethyl-1,3-dihydro-2H-benzimidazole-2-one], which “cell death of SK4 test cells on addition of activator” value (hSK4) is on record?
Answer: Its value is “cell death of the SK4 test cells was inhibited”.

Question: Which “cell death of SK2 test cells on addition of activator” value (hSK2; in the presence of 100 nM Ca ion) does the source give for `O=C1Nc2c(ccc(Cl)c2Cl)C1=NO` [NS309, 3-oxime-6,7-dichloro-1H-indole-2,3-dione] here?
Answer: Its value is “cell death of the SK2 test cells was inhibited”.

Question: With `c1cc2cc(c1)C[n+]1ccc(c3ccccc31)NCc1ccc(cc1)CNc1cc[n+](c3ccccc13)C2` [UCL1684] as the compound, how does the “effect of inhibitor on NS309-mediated inhibition of cell death” value (hSK2; added together with NS309, 100 nM Ca ion) read?
Answer: The value was “the NS309-mediated inhibition of cell death was extinguished”.

Question: Which results are given for ML365?
Answer: induction of cell death by inhibitor (hTASK-1; in the presence of 200 μM Ba ion): cell death was observed in a concentration-dependent regime; concentration above which a sharp increase in the induction of cell death occurred (hTASK-1; in the presence of Ba ion): > 11.5 nM; pIC50 (TASK-1): 7.92
